Measured values: patent US20180036234A1, “TREATMENT OF BONE FRACTURES AND DEFECTS” (Entera Bio Ltd., priority 2015, published 2018)
“And” between values parts separate entries of the source, which are not always exact repeats. Equal entries are not always repeated.

Columns and labels:
[1] = Dissolution test of tablets in simulated gastric buffer, released SNAC by HPLC; type: physicochemical; conditions: tablet with 100 mg sodium bicarbonate vs tablet without; simulated gastric buffer pH 2.0, 37° C.; FIG. 15
Experimental: The tablets were in a form of a homogeneous mixture.
Each tablet formulation was subjected to a dissolution test in 100 ml of simulated gastric buffer (without pepsin), pH 2.0, at 37° C., according to USP 23 Apparatus 2 (paddle) with 50 rotations per minute. The amount of released SNAC in each sample was determined chromatographically, using an HPLC apparatus with Cosmosil™ 5 C18-MS-II (4.6 ID×250 mm) column. Mobile phase consisted of 50% acetonitrile and 50% phosphoric acid solution (0.1%). Flow rate was 1 ml/minute and injection volume was 25 μl. Amount of released SNAC was calculated as a percentage of the amount of SNAC in the formulation.

[2] = Pharmacokinetic study of oral teriparatide tablet co-administered with water or sodium bicarbonate solution; type: in vivo, human; conditions: oral tablet 0.75 mg teriparatide with 150 ml of 3 mg/ml sodium bicarbonate solution, in comparison with 150 ml water; FIG. 16
Experimental: An open label comparative pharmacokinetic study was performed on ten healthy volunteers. On different visits, each volunteer received the same oral tablet containing 0.75 mg of teriparatide, a recombinant form of parathyroid hormone (1-34) (PTH(1-34)). In the first visit, the tablet was administered with 150 ml water, whereas in the second visit the tablet was administered with 150 ml of 3 mg/ml sodium bicarbonate aqueous solution.
(§1) The formulation was composed of teriparatide (0.75 mg), SNAC (sodium 8-N-(2-hydroxybenzoyl) aminocaprylate), soybean trypsin inhibitor (SBTI) and a small amount of magnesium stearate.
Tablets were administered in the morning after an 8-hour overnight fast. At each visit a standard meal was provided 3 hours after drug administration. […] There was a two week period between the two visits.
To determine PTH(1-34) concentrations, blood samples were drawn and PTH(1-34) levels were measured using an IDS-iSYS automated assay, using procedures described in Example 1 hereinabove. Relative absorption was determined based on the AUC (area under curve) parameter.

cAMP = assay: Plasma cAMP levels after oral or subcutaneous teriparatide; type: in vivo, human; conditions: FIG. 4
Experimental: In addition, plasma levels of cAMP, a known marker of PTH activity, were determined in order to confirm biological activity of administered PTH. cAMP plasma levels were measured following oral administration of 680 μg teriparatide or subcutaneous injection of 20 μg teriparatide, as described hereinabove.

[3] = Pharmacokinetic study of oral teriparatide tablet (0.75 mg) in healthy volunteers; type: in vivo, human
Experimental: An open label comparative pharmacokinetic study was performed in healthy volunteers over the course of 3 months. Each volunteer received—in each of two visits—the same oral tablet containing 0.75 mg of teriparatide, a recombinant form of parathyroid hormone (1-34).
as §1
Tablets were administered in the morning after an 8-hour overnight fast and immediately followed by 150 ml of water. At each visit a standard meal was provided 3 hours after drug administration. […] There was a two weeks period between the visits.
(§2) To determine parathyroid hormone(1-34) (PTH(1-34)) concentrations, blood samples (4 ml each) were drawn via an indwelling catheter from the forearm vein at predetermined time points during each visit. The cannula was flushed with 1.5 ml normal saline after each sampling. In addition, to avoid sample dilution, 1 ml of blood was drawn and discarded before the next sample. The blood samples were taken at following times: baseline (predose), 10 minutes, 15 minutes, 20 minutes, 30 minutes, 45 minutes, 60 minutes, 75 minutes, 90 minutes, 105 minutes, 2 hours, 3 hours, 4 hours and 5 hours post-administration. Each blood sample was collected into a single tube containing EDTA (ethylenediaminetetraacetic acid) and placed on ice. Within 15 minutes of blood collection, samples were centrifuged for 10 minutes at 4° C. (2500 rotations per minute) and the plasma was separated and divided into two or three aliquots. Each aliquot was transferred into appropriately labeled polypropylene tubes and stored at approximately −20° C. pending analysis. PTH(1-34) levels were measured using an IDS-iSYS automated assay for the measurement of intact PTH(1-34) in human plasma or serum.

[4] = Phase I clinical study of oral teriparatide formulations, plasma PTH(1-34) versus subcutaneous injection; type: in vivo, human
Experimental: A Phase I clinical study of exemplary oral formulations comprising teriparatide (parathyroid hormone (1-34)) was conducted at the Hadassah Clinical Research Center. 42 healthy volunteers were included throughout the study.
The formulation was composed of teriparatide (200, 400, 680, 1400 or 1800 μg), SNAC (sodium 8-N-(2-hydroxybenzoyl) aminocaprylate), soybean trypsin inhibitor and magnesium stearate.
Tablets were administered in the morning after an 8-hour overnight fast and immediately followed by 150 ml of water. At each visit a standard meal was provided 3 hours after drug administration.
as §2, with “hormone” for “hormone(1-34) (PTH(1-34))”, “points.” for “points during each visit.”, “(predose),” for “(predose), 10 minutes,”, “15” for “15 minutes, 20”
Oral administration of teriparatide was performed as described hereinabove at doses of 200, 400, 680, 1400 or 1800 μg. The Cmax of PTH(1-34) for each orally administered dose was compared with the Cmax of PTH(1-34) for subcutaneous injection of 20 μg teriparatide.

[5] = oral tablet 0.75 mg teriparatide with SNAC, SBTI, magnesium stearate, fasted healthy volunteers, plasma PTH(1-34), per subject (A, B, C)
[6] = oral tablet 0.75 mg teriparatide with SNAC, SBTI, magnesium stearate, second visit two weeks later, per subject (A, B, C)

dissolution of SNAC in tablets [1] | soluble fraction of SNAC [1] | increase in absorption of PTH(1-34) (based on AUC) [2] | time for plasma levels to return to baseline levels after tablet administration ([3]; oral tablet 0.75 mg teriparatide with SNAC and SBTI, plasma) [min] | Cmax after 1st administration [3, 5] [picogram/ml] | Tmax after 1st administration [3, 5] | Cmax after 2nd administration [3, 6] [picogram/ml] | Tmax after 2nd administration [3, 6] [min] | decline of PTH levels following oral administration compared with subcutaneous administration ([4]; oral 1800 μg vs subcutaneous 20 μg teriparatide, FIG. 3) | Cmax of PTH(1-34) following oral administration, relation to dose ([4]; oral tablets 200, 400, 680, 1400 or 1800 μg teriparatide with SNAC and SBTI, FIG. 2) | oral dose providing a Cmax equivalent to that of subcutaneous administration of 20 μg teriparatide ([4]; oral tablets with SNAC and SBTI, FIG. 2) | Structure (SMILES) | plasma cAMP levels (cAMP; oral administration of 680 μg teriparatide (compared with subcutaneous 20 μg)) | plasma cAMP levels (cAMP; subcutaneous administration of 20 μg teriparatide (compared with oral 680 μg))
considerably enhanced | preserved |  |  |  |  |  |  |  |  |  | O=C(O)CCCCCCCNC(=O)c1ccccc1O [SNAC, sodium 8-N-(2-hydroxybenzoyl)aminocaprylate] |  | 
 |  | about 35% | ≤ 60 | 35 | 10 min and 15 min | 36 | 20 | declined considerably more rapidly | proportional to the dose | roughly 750 μg | CC[C@H](C)[C@H](NC(=O)[C@H](CCC(=O)O)NC(=O)[C@H](CO)NC(=O)[C@@H](NC(=O)[C@@H](N)CO)C(C)C)C(=O)N[C@@H](CCC(N)=O)C(=O)N[C@@H](CC(C)C)C(=O)N[C@@H](CCSC)C(=O)N[C@@H](Cc1cnc[nH]1)C(=O)N[C@@H](CC(N)=O)C(=O)N[C@@H](CC(C)C)C(=O)NCC(=O)N[C@@H](CCCCN)C(=O)N[C@@H](Cc1cnc[nH]1)C(=O)N[C@@H](CC(C)C)C(=O)N[C@@H](CC(N)=O)C(=O)N[C@@H](CO)C(=O)N[C@@H](CCSC)C(=O)N[C@@H](CCC(=O)O)C(=O)N[C@@H](CCCN=C(N)N)C(=O)N[C@H](C(=O)N[C@@H](CCC(=O)O)C(=O)N[C@@H](Cc1c[nH]c2ccccc12)C(=O)N[C@@H](CC(C)C)C(=O)N[C@@H](CCCN=C(N)N)C(=O)N[C@@H](CCCCN)C(=O)N[C@@H](CCCCN)C(=O)N[C@@H](CC(C)C)C(=O)N[C@@H](CCC(N)=O)C(=O)N[C@@H](CC(=O)O)C(=O)N[C@H](C(=O)N[C@@H](Cc1cnc[nH]1)C(=O)N[C@@H](CC(N)=O)C(=O)N[C@@H](Cc1ccccc1)C(=O)O)C(C)C)C(C)C [teriparatide] | increased plasma cAMP levels to a similar degree | increased plasma cAMP levels to a similar degree
